{
  "source": "patent US7135502B1",
  "about": "“Colchinol derivatives as vascular damaging agents” (priority 1999, dated 2006)",
  "key": {"CaNT tumour vasculature": {"test_system": "CaNT tumour vasculature", "assay": "Activity against tumour vasculature measured by fluorescent dye (Hoechst 33342), tumour functional vascular volume", "type": "in vivo", "settings": "fluorescent dye method, CaNT tumour-bearing mice, dye 24 hours after drug treatment; for % Decrease in vascular volume: intraperitoneal, dose not given", "procedure": "(b) Activity Against Tumour Vasculature Measured by Fluorescent Dye\nTumour functional vascular volume of CaNT tumour-bearing mice was measured using the fluorescent dye Hoechst 33342 according to the method of Smith et al (Brit. Jnl. Cancer 1988, 57, 247–253). Five animals were used in control and treated group. The fluorescent dye was dissolved in saline at 6.25 mg/ml and injected intravenously at 10 mg/kg 24 hours after intraperitoneal drug treatment. One minute later, animals were killed and tumours excised and frozen; 10 μm sections were cut at 3 different levels and observed under UV illumination using an Olympus microscope equipped with epifluorescence. Blood vessels were identified by their fluorescent outlines and vascular volume was quantified using a point scoring system based on that described by Chalkley, (Jnl. Natl. Cancer Inst., 1943, 4, 47–53). All estimates were based on counting a minimum of 100 fields from sections cut at the 3 different levels."}, "vasculature": {"test_system": "vasculature", "settings": "at maximum tolerated dose; Lancet, 1994, 344, 1267-1271; cited from earlier work"}, "tubulin": {"test_system": "tubulin", "assay": "Tubulin polymerisation assay", "type": "biochemical", "settings": "method of O. Boye et al Med. Chem. Res., 1991, 1, 142-150", "text": "The ability of the compounds to bind to preparations of mammalian tubulin can be evaluated by a number of methods available in the literature, for example by following temperature initiated tubulin polymerisation by turbidity in the absence and presence of the compound (for example O. Boye et al Med. Chem. Res., 1991, 1, 142–150)."}},
  "data": [
    {"smiles": "COc1cc2c(c(OC)c1OC)-c1ccc(NC(=O)[C@H](C)N)cc1C(NC(C)=O)CC2", "note": "(some centres unmarked) [Example 2, N-[3-(alanylamino)-9,10,11-trimethoxy-6,7-dihydro-5H-dibenzo[a,c]cyclohepten-5-yl]acetamide]", "values": [
      {"measurement": "% Decrease in vascular volume", "setting": "CaNT tumour vasculature", "value": 95, "unit": "%"}
    ]},
    {"smiles": "CC(=O)O[C@@]12CO[C@@H]1C[C@H](O)[C@@]1(C)C(=O)[C@H](O)C3=C(C)[C@@H](OC(=O)[C@H](O)[C@@H](NC(=O)OC(C)(C)C)c4ccccc4)C[C@@](O)([C@@H](OC(=O)c4ccccc4)[C@H]21)C3(C)C", "note": "[docetaxel]", "values": [
      {"measurement": "vascular-damaging activity when administered at the MTD", "setting": "vasculature", "value": "no vascular-damaging activity"}
    ]},
    {"smiles": "COc1cc2c(c(OC)c1OC)-c1ccc(OC(=O)N3CCC(N4CCCCC4)CC3)cc1C(NC(C)=O)CC2", "note": "(centres unmarked) [Example 3, N-[3-(4-(1-piperidinyl)piperidinylcarbonyloxy)-9,10,11-trimethoxy-6,7-dihydro-5H-dibenzo[a,c]cyclohepten-5-yl]acetamide]", "values": [
      {"measurement": "% Decrease in vascular volume", "setting": "CaNT tumour vasculature", "value": 45, "unit": "%"}
    ]},
    {"smiles": "COc1cc2c(c(OC)c1OC)-c1ccc(N)cc1C(NC(C)=O)CC2", "note": "(centres unmarked) [N-[3-amino-9,10,11-trimethoxy-6,7-dihydro-5H-dibenzo[a,c]cyclohepten-5-yl]acetamide]", "values": [
      {"measurement": "decrease in perfused vascular volume relative to control", "setting": "CaNT tumour vasculature; 50 mg/kg intraperitoneally", "value": 88, "unit": "%"},
      {"measurement": "IC50", "setting": "tubulin", "value": 58, "unit": "µM"}
    ]}
  ]
}
